Values quoted from earlier work as cited in patent publication US5932763A, “Inhibition of matrix metalloproteases by 2-(ω-arolalkyl)-4-biaryl-4-oxobutyric acids” (Bayer Corporation, priority 1997, dated 1999).

Columns and labels:
[1] = Child, et al., J. Pharm. Sci., 66, 466, 1977
[2] = system: human ovarian carcinoma xenografts; details: mouse, in vivo
human colon tumor = details: given intraperitoneally; orthotopic model in nude mice

O=C(O)CC(C(=O)c1ccc(-c2ccccc2)cc1)c1ccccc1 (centres unmarked) [LXXVII]
activity of fenbufen analogs (described as inactive) [1]: inactive

O=C(CC(C(=O)O)c1ccccc1)c1ccc(-c2ccccc2)cc1 (centres unmarked) [XLIX]
activity of fenbufen analogs (described as inactive) [1]: inactive

CC(CC(=O)c1ccc(-c2ccccc2)cc1)C(=O)O (centres unmarked) [XLVII]
activity of fenbufen analogs (described as inactive) [1]: inactive

CNC(=O)[C@H](Cc1ccccc1)NC(=O)[C@H](CC(C)C)[C@H](CSc1cccs1)C(=O)NO [batimastat]
survival of mice bearing human ovarian carcinoma xenografts [2]: prolongs the survival
human colon tumor growth and spread (human colon tumor): inhibits human colon tumor growth and spread
